Measured values reported in the supplement of paper PMC10307832.

Tests used:
Test in all cases: relative viability (nuclei count vs DMSO), 5 days (fraction); higher = more cells survive
[1] = compound: CN1CCN(CC1)C2=CC(=C(C=C2)NC3=NC(=C(S3)C(=O)C4=C(C=CC=C4Cl)Cl)N)OC [XMD14-99] + Cc1nc(NC(=O)N2CCC[C@H]2C(N)=O)sc1-c1ccnc(C(C)(C)C(F)(F)F)c1 [Alpelisib] (partner 2 µM)
How it was run: (§1)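 Lung cancer cell lines, seeded in 1536-well plates, were treated the following day by pin tool with a single drug or with five library-drug doses (not always all listed) in √10 steps on top of a fixed anchor-drug dose. Cells were fixed and nuclei stained in one step after 5 days, and nuclei were counted. Relative viability is the nuclei count for treated wells divided by that for vehicle wells, reported as medians of duplicate plates.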

[2] = compound: N[C@@H]1CCCN(c2c(/C=C3\SC(=O)NC3=O)cccc2-c2ccccc2)C1 [AZD1208] + CC(C)C[C@H](NC(=O)[C@H](Cc1ccccc1)NC(=O)c1cnccn1)B(O)O [Bortezomib] (partner 0.002 µM)
How it was run: as §1

[3] = compound: CN1CCN(CC1)C2=CC(=C(C=C2)NC3=NC(=C(S3)C(=O)C4=C(C=CC=C4Cl)Cl)N)OC [XMD14-99]
How it was run: (§2)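 Lung cancer cell lines in 1536-well plates were exposed by pinning to five library-drug doses (not always all listed) √10 apart, following an overnight hold at 37 °C. MetaXpress counted Hoechst-stained nuclei from 4× images taken after 5 days without medium change. Viability is the median ratio of treated-well to vehicle-well nuclei across plates. Plates required control CV below 25% and at least one doubling.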

[4] = compound: N[C@@H]1CCCN(c2c(/C=C3\SC(=O)NC3=O)cccc2-c2ccccc2)C1 [AZD1208]
How it was run: as §2

Row | Cell Line | relative viability ([1]; first compound 0.08 µM) | relative viability ([1]; first compound 0.8 µM) | relative viability ([1]; first compound 2.53 µM) | relative viability ([1]; first compound 8 µM) | relative viability ([2]; first compound 0.08 µM) | relative viability ([2]; first compound 0.253 µM) | relative viability ([2]; first compound 0.8 µM) | relative viability ([2]; first compound 2.53 µM) | relative viability ([2]; first compound 8 µM) | relative viability ([3]; 0.08 µM) | relative viability ([3]; 0.8 µM) | relative viability ([3]; 2.53 µM) | relative viability ([3]; 8 µM) | relative viability ([4]; 0.08 µM) | relative viability ([4]; 0.253 µM) | relative viability ([4]; 0.8 µM) | relative viability ([4]; 2.53 µM) | relative viability ([4]; 8 µM)
1 | NCI-H1975 | 0.715 | 0.605 | 0.553 | 0.378 | 0.415 | 0.404 | 0.304 | 0.353 | 0.357 | 0.992 | 0.994 | 0.917 | 0.788 | 1.06 | 1.08 | 0.909 | 1.04 | 0.878
2 | CAL-12T | 1.49 | 1.13 | 1.15 | 1.03 | 1.32 | 1.03 | 0.887 | 1.03 | 1.18 | 0.974 | 1.01 | 0.933 | 0.692 | 1.01 | 1.13 | 0.967 | 1.01 | 1.05
3 | NCI-H1623 |  |  |  |  |  |  |  |  |  | 0.959 | 0.99 | 1.01 | 0.804 | 0.984 | 0.912 | 0.764 | 0.871 | 0.746
4 | HCC-44 | 0.825 | 0.788 | 0.821 | 0.797 | 0.991 | 0.952 | 0.857 | 0.978 | 0.95 | 1.04 | 0.969 | 1.02 | 0.948 | 1.11 | 0.933 | 1.01 | 1.09 | 1.05
5 | EKVX | 0.767 | 0.985 | 0.876 | 0.696 | 1.17 | 1.21 | 1.03 | 1.2 | 1 | 0.98 | 0.892 | 0.954 | 0.812 | 0.988 | 1.11 | 0.903 | 1.04 | 0.972
6 | NCI-H1651 | 0.841 | 0.836 | 1.09 | 0.917 | 0.978 | 0.925 | 0.858 | 0.96 | 0.816 | 0.972 | 0.984 | 0.964 | 0.845 | 0.954 | 1.07 | 0.83 | 0.928 | 0.856
7 | NCI-H1944 | 0.902 | 0.867 | 0.805 | 0.755 |  |  |  |  |  | 0.906 | 0.917 | 0.817 | 0.809 | 0.963 | 0.898 | 0.861 | 0.822 | 0.639
8 | NCI-H1703 | 0.338 | 0.36 | 0.487 | 0.334 | 0.277 | 0.159 | 0.246 | 0.253 | 0.305 | 0.89 | 0.912 | 0.91 | 0.761 | 0.846 | 0.881 | 0.846 | 0.718 | 0.654
9 | NCI-H358 | 0.751 | 0.841 | 0.715 | 0.304 |  |  |  |  |  | 0.959 | 0.895 | 0.851 | 0.57 | 0.904 | 0.78 | 0.798 | 0.862 | 0.729
10 | NCI-H1793 | 0.77 | 0.641 | 0.666 | 0.476 |  |  |  |  |  | 0.881 | 0.892 | 0.839 | 0.688 | 1.02 | 1.2 | 0.794 | 1.01 | 0.673
11 | ChaGo-K-1 |  |  |  |  | 1.21 | 0.983 | 1.04 | 0.975 | 0.92 | 0.97 | 1.03 | 0.961 | 0.939 | 1.13 | 1.03 | 0.924 | 1.04 | 0.893
12 | NCI-H522 |  |  |  |  |  |  |  |  |  | 0.891 | 1.01 | 1.07 | 1 | 0.975 | 0.922 | 0.816 | 0.816 | 0.769
13 | NCI-H1650 |  |  |  |  | 0.201 | 0.19 | 0.226 | 0.199 | 0.192 | 0.818 | 0.976 | 0.805 | 0.807 | 0.924 | 1.1 | 0.868 | 0.898 | 0.88
14 | NCI-H1648 |  |  |  |  |  |  |  |  |  | 0.845 | 0.713 | 0.734 | 0.454 | 0.981 | 1.25 | 0.921 | 1.04 | 1.05
15 | SK-MES-1 | 0.924 | 0.909 | 0.851 | 0.591 |  |  |  |  |  | 1.02 | 0.994 | 0.976 | 0.664 | 0.979 | 1.01 | 0.964 | 0.943 | 0.866
16 | NCI-H2342 |  |  |  |  |  |  |  |  |  | 0.957 | 0.932 | 1.02 | 0.761 | 1.07 | 0.944 | 0.84 | 0.945 | 0.765
17 | SW 900 |  |  |  |  |  |  |  |  |  | 0.918 | 0.976 | 0.753 | 0.66 | 0.837 | 0.989 | 0.822 | 1 | 0.799
18 | LK-2 | 1.01 | 1.11 | 0.855 | 1.05 |  |  |  |  |  | 0.914 | 1.04 | 1.09 | 0.913 | 0.882 | 0.718 | 0.63 | 0.493 | 0.42
19 | NCI-H1395 | 1.07 | 1.17 | 1.05 | 0.883 |  |  |  |  |  | 0.981 | 0.951 | 0.997 | 0.695 | 1.15 | 1 | 0.93 | 0.913 | 0.697
20 | A549 | 0.749 | 0.759 | 0.641 | 0.576 |  |  |  |  |  | 0.955 | 0.97 | 0.898 | 0.726 | 0.957 | 0.952 | 0.868 | 0.934 | 0.786
21 | NCI-H2170 | 0.771 | 0.762 | 0.854 | 0.734 |  |  |  |  |  | 0.97 | 1.01 | 0.995 | 0.925 | 0.99 | 0.994 | 0.945 | 0.964 | 0.64
